Reference: US11081236B2, “Diagnostic and therapeutic methods for the treatment of breast cancer” (GENENTECH, INC., priority 2018, dated 2021)

System: panel of 14 ER+/HER2− breast cancer cell lines
Experiment: 8-day in vitro viability assay, GR (Growth Rate) method
Format: cell-based
Details: 300 nM
Experimental: The relationship between ER pathway activity and the anti-proliferative effect of the ER antagonist fulvestrant was explored in a panel of 14 ER+/HER2− breast cancer cell lines. RNA-sequencing data was leveraged to determine the E2-induced score, determined by expression of a set of E2-induced genes (as described above), of a series of ER+/HER2− breast cancer cell lines grown under standard culture conditions, in the presence of estrogen. The effect of ER inhibition by 300 nM fulvestrant on cellular proliferation was determined in an 8-day in vitro viability assay using the GR (Growth Rate) method described by Hafner et al. (Nat Methods 13:6, 2016). The E2-induced score was then plotted against the effect of fulvestrant on cellular growth rate.

SMILES: C[C@]12CC[C@@H]3c4ccc(O)cc4C[C@@H](CCCCCCCCC[S+]([O-])CCCC(F)(F)C(F)(F)F)[C@H]3[C@@H]1CC[C@@H]2O (some centres unmarked) [Fulvestrant, fulvestrant]
- impact on growth rate (cell lines exhibiting higher E2-induced scores): considerably greater impact
- impact on growth rate (cell lines with E2-induced scores in the lowest 25th percentile (ZR-75-1, MDA-MB-415, MDA-MB-175-VII, KPL-1)): little impact
